The subject of one test is RBL-2H3 cells. Description: Inhibition of serotonin liberation from IgE-sensitized, antigen-stimulated RBL-2H3 cells ([3H]-serotonin). Type of test: cell-based. As to conditions: Rattus norvegicus; IgE-sensitized RBL-2H3 cells stimulated with specific antigen; [3H]-labeled serotonin. The source says: Under the action of an antigen specific to the IgE antibody, RBL-2H3 cells, i.e., a cell line originating in rat cells, not only liberate histamine and serotonin but also produce and liberate cytokines such as TNF" serving as an inflammatory mediator and prostaglandins. In this experimental system, the effects of the compounds of the present invention of inhibiting the liberation of various mediators were examined by using serotonin as an indication.
The cells were labeled with [^3H]-labeled serotonin and, at the same time, sensitized with the IgE antibody. Next, these cells were incubated in the presence of the acridone compounds according to the present invention and then stimulated with the specific antigen. Then the serotonin liberation inhibitory activity of each acridone compound was calculated from the amount of the [^3H]-labeled serotonin thus liberated into the medium due to the above-mentioned stimulation and the amount of the [^3H]-labeled serotonin liberated into the medium by the same experimental procedure as the one described above but adding no acridone compound of the present invention.

In the next test the test system is human basophils. The experiment in a line: Inhibition of mediator (histamine, peptide leukotriene) liberation from human basophils stimulated with tick antigen. The format is cell-based. The settings on record: leukocyte fraction containing basophils, enzyme immunoassay. The method, then: To 20 ml of heparinized blood was added 6 ml of 6% dextran (for separating leukocytes, high molecular weight). The obtained mixture was thoroughly stirred and then allowed to stand at 37°C for 30 minutes to thereby sediment erythrocytes. The upper layer was taken out and phosphate-buffered saline was added thereto. The obtained mixture was centrifuged at 185 G for eight minutes to thereby give a crude leukocyte fraction. These cells (leukocyte fraction) were subjected to hypotonic hemolysis and then suspended in D-PBS(+) containing 0.1% of BSA. The cell suspension thus prepared was used in the subsequent experiment as the leukocyte fraction containing basophils.
To 0.4 ml of this cell suspension preliminarily heated at 37°C for 5 minutes was added 0.05 ml of a solution containing each acridone compound of the present invention. The obtained mixture was then allowed to stand at 37°C for 15 minutes so that the cells were pre-treated. Next, 0.05 ml of a tick antigen solution was added thereto to thereby induce an antigen-antibody reaction. Ten minutes thereafter, the antigen-antibody reaction was ceased by ice-cooling. After ceasing the reaction, the mixture was centrifuged at 185 G for ten minutes. The supernatant was taken out and the contents of histamine and a peptide leukotriene therein were determined by using each an enzyme immunoassay kit. Based on the data thus obtained, the activities of the compound of inhibiting the liberation of histamine and peptide leukotriene were determined.

The target in test [1] is T1, tyrosine kinase of 72 kDa (Rattus norvegicus, UniProt Q64725).
T1 construct: the tyrosine kinase of 72 kDa contained in the lysate or cytosol thus prepared; endogenous in cells; host or cells: RBL-2H3 cells (NP-40 lysate or cytosol fraction)
The experiment in a line: Inhibition of phosphorylation (activation) of the 72 kDa tyrosine kinase induced by phosphorylated TAM peptide of IgE receptor γ-chain, western blotting. The format is biochemical. As to conditions: Compd. concentration 10 μM; RBL-2H3 lysate or cytosol, TAM peptide 10 µM, ATP 50 µM; tyrosine kinase phosphorylation inhibitory ratio; read-out: Inhibitory potency. The source says:
In this experiment, use was made of RBL-2H3 cells, i.e., a cell line which is generally employed in the studies on the informational transmission system in IgE receptors of mast cells or basophils and a peptide in the tyrosine activation motif (TAM) region containing phosphorylated tyrosine in a human IgE receptor γ chain synthesized by Peputido Kenkyusho K.K..
In this experiment, use was made of a lysate which had been obtained by solubilizing 1 × 10^7 to 5 × 10^7 cells with the use of a solution containing various proteases and NP-40 employed as a solubilizer at a concentration of 1% and a supernatant (as the cytosol fraction of the cells) which had been obtained by disrupting the cells with Down's homogenizer and centrifuging the obtained mixture at 50,000 rpm for 1 hour. The concentrations of the lysate and cytosol of the cells were each adjusted to 1 mg protein/ml with the use of an isotonic buffer. […]
The extent of the activation of this tyrosine kinase was determined by confirming the extent of the phosphorylation of the tyrosine moiety in the tyrosine kinase per se by western blotting with the use of an anti-tyrosine phosphorylation antibody and then numerically expressing the obtained data with an image analyzer. Based on the extent of the phosphorylation thus obtained, the tyrosine kinase phosphorylation inhibitory ratio of the compound 101 was determined.
On the technique in general: Immunoblotting shows a protein as a band on a membrane.

The mark [2] stands for this setting: histamine, read-out: IC50 (µM) in mediator liberation from human basophils histamine.
The mark [3] stands for this setting: peptide leukotriene, read-out: IC50 (µM) in mediator liberation from human basophils leukotriene.

Read-outs that look alike come from different tables or passages of the source.

T1 sequence (Q64725 whole entry): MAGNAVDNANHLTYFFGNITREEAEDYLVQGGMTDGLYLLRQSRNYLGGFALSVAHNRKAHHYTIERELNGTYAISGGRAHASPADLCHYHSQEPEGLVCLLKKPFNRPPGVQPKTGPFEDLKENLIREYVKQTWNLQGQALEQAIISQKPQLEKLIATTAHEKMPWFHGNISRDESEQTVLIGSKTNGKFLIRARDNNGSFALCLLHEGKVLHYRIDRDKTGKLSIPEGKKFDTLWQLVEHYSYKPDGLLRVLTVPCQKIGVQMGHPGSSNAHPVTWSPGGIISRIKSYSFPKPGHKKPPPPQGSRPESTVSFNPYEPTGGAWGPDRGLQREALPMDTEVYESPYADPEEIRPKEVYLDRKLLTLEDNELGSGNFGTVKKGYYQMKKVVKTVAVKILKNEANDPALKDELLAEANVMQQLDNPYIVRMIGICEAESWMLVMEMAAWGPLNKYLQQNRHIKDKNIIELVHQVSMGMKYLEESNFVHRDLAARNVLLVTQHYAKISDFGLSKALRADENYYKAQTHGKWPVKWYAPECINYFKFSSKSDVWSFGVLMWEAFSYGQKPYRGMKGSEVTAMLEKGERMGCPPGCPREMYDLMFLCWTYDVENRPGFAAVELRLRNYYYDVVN

Turning to `Cc1ccc2c(=O)c3c(CC(=O)O)cccc3n(CCCNCc3ccccc3)c2c1C` [Compound 1], the results for the IC50 in the test on RBL-2H3 cells, with human basophils (setting [2]) and in the test with human basophils (setting [3]) were 3 µM, 30 µM and 30 to 100 µM, respectively.

On to `Cc1ccc2c(=O)c3c(CC(=O)O)cccc3n(CCCNCc3ccc(Cl)cc3Cl)c2c1C` [Compound 13], for which the results for the IC50 in the test on RBL-2H3 cells, with human basophils (setting [2]) and in the test on human basophils (setting [3]) were 0.2 µM, 10 to 30 µM and 3 to 10 µM, respectively.

Consider `COc1c(CNCCCn2c3cccc(CC(=O)O)c3c(=O)c3ccc(C)c(C)c32)ccc(Cl)c1Cl` [Compound 28], for which the IC50 turned out to be 1 µM in the test with RBL-2H3 cells, 10 µM in the test on human basophils (setting [2]) and 3 µM with human basophils (setting [3]).

Regarding `Cc1ccc2c(=O)c3ccccc3n(CCCNCc3ccccc3O)c2c1C` [Compound 39], the values for the IC50 in the test on RBL-2H3 cells, with human basophils (setting [2]) and with human basophils (setting [3]) were 1 µM, 10 µM and 3 µM, respectively.

Regarding `Cc1ccc2c(=O)c3c(CC(=O)O)cccc3n(CCCN(C)Cc3ccccc3)c2c1C` [Compound 101], the IC50 in the test with RBL-2H3 cells was 3 µM; with human basophils (setting [3]) it was 10 to 30 µM. The inhibition at 10 µM in test [1] came out at 70%.

As to `Cc1ccc2c(=O)c3ccccc3n(Cc3ccccc3CNCc3ncc[nH]3)c2c1C` [Compound 127], the IC50 with RBL-2H3 cells is 5 µM.

For `Cc1ccc2c(=O)c3ccccc3n(Cc3cccc(CNCc4ccccc4)n3)c2c1C` [Compound 128], the IC50 with RBL-2H3 cells is 1 µM.

Regarding `Cc1ccc2c(=O)c3ccccc3n(CC=CCNCc3ccccc3)c2c1C` [Compound 129], the IC50 with RBL-2H3 cells is 8 µM.

With `Cc1ccc2c(=S)c3ccccc3n(CCCN)c2c1C` [Compound 130], the IC50 in the test with RBL-2H3 cells came out at 10 µM.

Take `Cc1ccc2c(=S)c3ccccc3n(CCCNCc3ccccc3)c2c1C` [Compound 131]: the IC50 with RBL-2H3 cells came out at 10 µM.

For the molecule `Cc1ccc2c(=O)c3ccccc3n(Cc3ccc(CNCc4ccccc4)o3)c2c1C` [Compound 133], the IC50 in the test on RBL-2H3 cells is 2 µM.

As for `CNC(=O)Cc1cccc2c1c(=O)c1ccc(C)c(C)c1n2CCCN(C)Cc1ccccc1` [Compound 135], the IC50 was 2 µM in the test on RBL-2H3 cells and 10 to 30 µM with human basophils (setting [3]).

On to `Cc1ccc2c(=O)c3c(CC(=O)N(C)C)cccc3n(CCCN(C)Cc3ccccc3)c2c1C` [Compound 136], for which the IC50 in the test with RBL-2H3 cells stood at 10 µM.

As for `Cc1ccc2c(=O)c3c(C(C)C(=O)O)cccc3n(CCCN(C)Cc3ccccc3)c2c1C` (centres unmarked) [Compound 140], the IC50 in the test on RBL-2H3 cells amounted to 4 µM.

Take `Cc1ccc2c(=O)c3c(C(C)C(=O)O)cccc3n(CCCNCc3ccccc3)c2c1C` (centres unmarked) [Compound 141]: the values for the IC50 in the test with RBL-2H3 cells, in the test with human basophils (setting [2]) and in the test on human basophils (setting [3]) were 1 µM, 30 to 100 µM and 3 to 10 µM, respectively.

Consider `Cc1ccc2c(=O)c3c(C(C)C(=O)O)cccc3n(CCCNCc3ccc(Cl)c(Cl)c3)c2c1C` (centres unmarked) [Compound 142], for which the IC50 in the test with RBL-2H3 cells was determined as 1 µM.

Regarding `Cc1ccc2c(=O)c3c(C(C)C(=O)O)cccc3n(CCCNCc3ccc(Cl)cc3Cl)c2c1C` (centres unmarked) [Compound 143], the IC50 turned out to be 1 µM with RBL-2H3 cells, 30 µM in the test on human basophils (setting [2]) and 10 µM in the test on human basophils (setting [3]).

Values taken from patent EP0857721A1, “ACRIDONE COMPOUNDS” (Eisai Co., Ltd., priority 1995, dated 1997).
